Broadly, the IC50 is the midpoint of a concentration-inhibition curve.

SMILES strings stand for the structures. Where “and” joins values, the source holds several entries; their conditions need not be identical. Equal entries are not always repeated. Where two headings read alike, the source gives them in different places.

These results are taken from PMC9021288 (Nature Communications, 2022).

Data set [1] can be described thus: Crystal screening (XRPD). Format: physicochemical. The settings on record: 36 conditions. Here is the method: Crystal screening for each further characterized pantothenamide was performed by a commercial service (Crystal Pharmatech Co., Ltd.) under 36 conditions using a variety of crystallization methods, including liquid vapor diffusion, slow evaporation, slurry conversion and salt/co-crystal formation and solvents. X-ray power diffraction (XRPD) patterns were collected by Bruker X-ray powder diffractometers.

Data set [2] concerns P. falciparum NF54-HGL gametocytes. The data set can be described thus: Gametocyte viability assay (72 h, luminescence). The format is cell-based, Plasmodium falciparum. The procedure:
Gametocyte viability assays on NF54-HGL parasites were performed using an adapted high-throughput protocol as previously described[15],[64]. In short, asexual blood-stage parasite cultures were set up at 1% parasitemia in a semi-automated shaker system at 5% hematocrit. From day four until day eight or nine, parasites were treated with 50 mM N-acetyl glucosamine to eliminate all asexual blood-stage parasites. Subsequently, gametocytes were isolated by a Percoll density gradient centrifugation. At day 11, gametocytes were seeded (5,000 per well) in 30 µl in white 384-well plates containing 30 µl of compounds diluted in medium (0.1% DMSO). After a 72-h incubation, 30 µl of ONE-Glo reagent (Promega) was added according to manufacturer’s protocol and luminescence was quantified using the BioTek Synergy 2 Plate reader. Values were normalized to DMSO- and epoxomicin or dihydroartemisinin-treated controls.

In data set [3] the test system is P. falciparum Pf3D7^0087/N9. The data set can be described thus: Single dose in vivo efficacy in humanized NSG mice. Set-up: species or system Plasmodium falciparum. Here is the method: The effect of pantothenamides on P. falciparum Pf3D7^0087/N9 [66] in vivo was assessed in female NSG mice (NODscidIL2Rγ^null) at the Swiss Tropical and Public Health Institute (Basel, Switzerland) as described previously (Supplementary Table 30)[15],[67]. Briefly, humanized mice were engrafted daily with human erythrocyte suspensions from days -11 to day 6. […] On day 4, groups of n = 2 mice were treated with a single dose pantothenamides or chloroquine (50 mg/kg) by oral gavage. […] Serial dilutions were prepared in the same solvent to concentrations 50 times higher than the corresponding CAL and QC concentrations. The concentrations were calculated under consideration of purity and salt factor. The spiking of the CAL and QC sample were performed at room temperature.

The subject of data set [4] is P. falciparum NF54 asexual blood-stage parasites. Put plainly: 72-h asexual blood-stage replication assay (SYBR Green). Format: cell-based, Plasmodium falciparum. Also on record: key to asexual blood stages growth, dose-response: % growth; DMSO control = 100%, DHA/epoxomicin-treated = no growth.

On to `C[C@@H](CNC(=O)[C@H](O)C(C)(C)CO)NC(=O)c1cc(C#N)ccc1F` [MMV693182], for which, in data set [1], the Crystalline result is “Yes”. The “Sexual blood stages viability, dose-response” value in data set [2] (Log concentration (M) -7.5) is 49.3 and 51; in data set [2] (Log concentration (M) -8), 81.9 and 78.35; in data set [2] (Log concentration (M) -8.5), 96 and 103.7; in data set [2] (Log concentration (M) -9), 97.2 and 103.7; in data set [2] (Log concentration (M) -9.5), 95 and 105.75; in data set [2] (Log concentration (M) -10), 95.6 and 117.9. Further, the IC50 in data set [2] (Plasmodium falciparum, NF54, per replicate experiment, read-out: IC50, sexual blood stages) was 32.9 nM; in data set [2] (Plasmodium falciparum, NF54, sexual viability assay, range of independent experiments, read-out: Gametocyte IC50 range (N)) it was 21.4 to 32.9 nM; in data set [2] (per replicate experiment, read-out: IC50, sexual blood stages) it was 21.4 nM; in data set [4] (Plasmodium falciparum, NF54, 72 h, 72-h asexual growth assay, range of independent experiments, read-out: Asexual blood stage IC50 range (N)), 6.2 to 7.5 nM; in data set [4] (Plasmodium falciparum, NF54, asexual blood stages NF54 parasites), 7.5 nM; in data set [4] (Plasmodium falciparum, NF54, per replicate experiment, read-out: IC50, asexual blood stages) it was 7.54 nM. In data set [4] (per replicate experiment, read-out: IC50, asexual blood stages), the IC50 came out at 6.21 nM. In addition, the Parasitemia in data set [3] (day 5 post infection, 50 mg/kg p.o. on day 4, per mouse, 50 mg/kg) is 0.28 and 0.38; in data set [3] (day 6 post infection, per mouse), 0.03 and 0.05; in data set [3] (day 7 post infection, per mouse), 0.02. Further, in data set [3] (single 50 mg/kg oral gavage on day 4, over three days), the parasitemia outcome is “not fully cleared”. Besides, the “asexual blood stages growth, dose-response” value is 14.55 and 11.25 in data set [4] (Log concentration (M) -7.5); 38 and 38.5 in data set [4] (Log concentration (M) -8); 59.8 and 65.55 in data set [4] (Log concentration (M) -8.5); 98.45 and 83.35 in data set [4] (Log concentration (M) -9); 91.35 and 91.95 in data set [4] (Log concentration (M) -9.5); 80.55 and 97.8 in data set [4] (Log concentration (M) -10).
